# Data published in BindingDB's records for doi:10.7270/Q2N58JV3 (Burnham Center For Chemical Genomics, 2010).
# Target: Polyadenylate-binding protein 1 (Homo sapiens, UniProt P11940)
# Assay: PABP inhibition in translation initiation, SAR follow-up (AID 435018)
# Polyadenylate-binding protein 1, sequence (P11940 whole entry): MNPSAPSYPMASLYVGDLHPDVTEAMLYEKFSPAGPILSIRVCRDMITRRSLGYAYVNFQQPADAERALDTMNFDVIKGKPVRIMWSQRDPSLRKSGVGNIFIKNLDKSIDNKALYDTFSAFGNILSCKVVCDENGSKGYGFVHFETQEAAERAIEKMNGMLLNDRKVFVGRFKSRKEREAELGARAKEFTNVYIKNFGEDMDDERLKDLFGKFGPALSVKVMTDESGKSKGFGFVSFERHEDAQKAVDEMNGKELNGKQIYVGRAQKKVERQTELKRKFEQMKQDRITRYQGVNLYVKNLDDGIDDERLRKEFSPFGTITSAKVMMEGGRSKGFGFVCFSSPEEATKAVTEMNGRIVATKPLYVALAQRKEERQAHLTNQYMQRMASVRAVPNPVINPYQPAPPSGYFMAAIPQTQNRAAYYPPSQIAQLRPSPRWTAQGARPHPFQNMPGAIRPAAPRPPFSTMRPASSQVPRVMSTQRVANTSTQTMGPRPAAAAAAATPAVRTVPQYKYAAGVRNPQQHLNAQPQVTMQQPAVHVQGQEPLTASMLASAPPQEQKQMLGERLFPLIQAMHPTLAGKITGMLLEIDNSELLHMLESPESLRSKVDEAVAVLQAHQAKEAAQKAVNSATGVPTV
smiles,measurement,value
COc1cc([CH+][N-]NC(=O)c2ccc(O)cc2)ccc1OCC(=O)Nc1cccc([N+](=O)[O-])c1,IC50,> 100 µM
